Target: T1, human full length HSD11 β 1 (Homo sapiens, UniProt P28845)
T1 construct: transient expression of human full length HSD11 β 1 expression vector; host or cells: CHO cells (transient transfection)
Assay: In Vitro HSD11β1 Inhibition Assay
Type: cell-based
Details: CHO cells transiently expressing human HSD11β1; 200 nM cortisone+500 uM NADPH overnight; cortisone to cortisol by LC/MS-MS; read-out: 11βHSD1 (IC50)
Procedure, shortened: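 CHO cells transiently transfected with human full-length HSD11β1 were re-seeded after 24 h and, 24 h later, incubated overnight with 200 nM cortisone plus 500 uM NADPH and inhibitor. Cortisone-to-cortisol conversion was measured by LC/MS-MS. IC50 from an 8-point log concentration–inhibition curve.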

T1 sequence (P28845 whole entry): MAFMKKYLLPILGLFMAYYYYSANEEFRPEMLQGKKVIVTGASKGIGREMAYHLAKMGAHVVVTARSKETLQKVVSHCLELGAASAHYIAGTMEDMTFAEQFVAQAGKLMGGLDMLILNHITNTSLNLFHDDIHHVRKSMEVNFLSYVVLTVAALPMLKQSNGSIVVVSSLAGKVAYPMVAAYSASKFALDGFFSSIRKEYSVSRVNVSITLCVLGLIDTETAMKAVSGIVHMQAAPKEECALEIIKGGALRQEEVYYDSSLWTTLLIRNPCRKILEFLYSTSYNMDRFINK

| SMILES | IC50 [nM] |
| --- | --- |
| O=C(CCc1c[nH]c2cc(F)ccc12)N1CCCC2CCCCC21 (stereo not shown) [Compound 39, 3-(6-fluoro-1H-indol-3-yl)-1-(octahydroquinolin-1(2H)-yl)propan-1-one] | > 250 |
| CC1CCC2CCCCC2N1C(=O)CCc1c[nH]c2cc(F)ccc12 (stereo not shown) [Compound 40, 3-(6-fluoro-1H-indol-3-yl)-1-(2-methyloctahydroquinolin-1(2H)-yl)propan-1-one] | > 250 |
| O=C(CCc1c[nH]c2ccccc12)N1CC2CCCCC2C1 (stereo not shown) [Compound 42, 3-(1H-indol-3-yl)-1-(octahydro-2H-isoindol-2-yl)propan-1-one] | > 250 |
| O=C1CCN(C(=O)CCc2c[nH]c3cc(F)ccc23)C2CCCCC12 (stereo not shown) [Compound 43, 1-[3-(6-fluoro-1H-indol-3-yl)propanoyl]octahydroquinolin-4(1H)-one] | > 250 |
| CC1CC2CCCCC2N1C(=O)CCc1c[nH]c2ccccc12 (stereo not shown) [Compound 45] | > 250 |
| O=C(O)Cn1cc(CCC(=O)N2CCCC3CCCCC32)c2ccccc21 (stereo not shown) [Compound 46, {3-[3-(octahydroquinolin-1(2H)-yl)-3-oxopropyl]-1H-indol-1-yl}acetic acid] | > 250 |
| O=C(CCc1c[nH]c2ccccc12)N1CCCC2=C1CCCC2 [Compound 48, 1-(3,4,5,6,7,8-hexahydroquinolin-1(2H)-yl)-3-(1H-indol-3-yl)propan-1-one] | > 250 |
| COC(=O)C1CCN(C(=O)CCc2c[nH]c3ccccc23)C2CCCCC12 (stereo not shown) [Compound 49, methyl 1-[3-(1H-indol-3-yl)propanoyl]decahydroquinoline-4-carboxylate] | > 250 |
| O=C(O)C1CCN(C(=O)CCc2c[nH]c3ccccc23)C2CCCCC12 (stereo not shown) [Compound 50, 1-[3-(1H-indol-3-yl)propanoyl]decahydroquinoline-4-carboxylic acid] | > 250 |
| O=C(CCc1cn(S(=O)(=O)c2ccccc2)c2ccccc12)N1CCCC2CCCCC21 (stereo not shown) [Compound 51, 1-(octahydroquinolin-1(2H)-yl)-3-[1-(phenylsulfonyl)-1H-indol-3-yl]propan-1-one] | > 250 |
| O=C(CCc1c[nH]c2ccccc12)N1CCCCC2CCCCC21 (stereo not shown) [Compound 54, 1-(decahydro-1H-1-benzazepin-1-yl)-3-(1H-indol-3-yl)propan-1-one] | > 250 |
| O=C(CS(=O)(=O)c1c[nH]c2ccccc12)N1CCCC2CCCCC21 (stereo not shown) [Compound 57, 2-(1H-indol-3-ylsulfonyl)-1-(octahydroquinolin-1(2H)-yl)ethanone] | > 250 |
| O=C(CCc1c[nH]c2ccccc12)N1CCO[C@@H]2CCCCC21 (stereo partly drawn) [Compound 61, 3-(1H-indol-3-yl)-1-[(trans-4a,8a)-octahydro-4H-1,4-benzoxazin-4-yl]propan-1-one] | > 250 |
| O=C(CCc1c[nH]c2ccccc12)N1CCOC2CCCCC21 (stereo not shown) [Compound 67, 3-(1H-indol-3-yl)-1-(octahydro-4H-1,4-benzoxazin-4-yl)propan-1-one] | > 250 |
| Cc1cccc2[nH]cc(CCC(=O)N3CC(C)(C)OC4CCCCC43)c12 (stereo not shown) [Compound 68, 1-(2,2-dimethyloctahydro-4H-1,4-benzoxazin-4-yl)-3-(4-methyl-1H-indol-3-yl)propan-1-one] | > 250 |
| Cc1cccc2c1c(CCC(=O)N1CC(C)OC3CCCCC31)cn2C (stereo not shown) [Compound 69, 3-(1,4-dimethyl-1H-indol-3-yl)-1-(2-methyloctahydro-4H-1,4-benzoxazin-4-yl)propan-1-one] | > 250 |
| Cc1cccc2c1c(CCC(=O)N1CC(C)(C)OC3CCCCC31)cn2C (stereo not shown) [Compound 70, 3-(1,4-dimethyl-1H-indol-3-yl)-1-(2,2-dimethyloctahydro-4H-1,4-benzoxazin-4-yl)propan-1-one] | > 250 |
| O=C(CSc1nc2ccccc2s1)N1CCCC2CCCCC21 (stereo not shown) [Compound 73, 2-(1,3-benzothiazol-2-ylsulfanyl)-1-(octahydroquinolin-1(2H)-yl)ethanone] | > 250 |
| CC(CC(=O)N1CCC(CC(=O)O)C2CCCCC21)c1c[nH]c2cccc(C3CC3)c12 (stereo not shown) [Compound 189, (1-[3-(4-cyclopropyl-1H-indol-3-yl)butanoyl]decahydroquinolin-4-yl)acetic acid] | > 250 |
| CC(CC(=O)N1CCC(C(=O)O)C2CCCCC21)c1c[nH]c2cccc(C3CC3)c12 (stereo not shown) [Compound 194, 1-[3-(4-cyclopropyl-1H-indol-3-yl)butanoyl]decahydroquinoline-4-carboxylic acid] | > 250 |
| CC(CC(=O)N1CCCC2C(C(=O)O)CCCC21)c1c[nH]c2cccc(C#N)c12 (stereo not shown) [Compound 197, 1-[3-(4-cyano-1H-indol-3-yl)butanoyl]decahydroquinoline-5-carboxylic acid] | > 250 |
| CC(CC(=O)N1CCCC2CCCCC21)c1c[nH]c2cccc(N3CCC(C(=O)O)CC3)c12 (stereo not shown) [Compound 202, 1-{3-[4-(octahydroquinolin-1(2H)-yl)-4-oxobutan-2-yl]-1H-indol-4-yl}piperidine-4-carboxylic acid] | > 250 |
| Cc1ccc2[nH]cc(C(C)CC(=O)N3CCCC4C(C(=O)O)CCCC43)c2c1Cl (stereo not shown) [Compound 203, 1-[3-(4-chloro-5-methyl-1H-indol-3-yl)butanoyl]decahydroquinoline-5-carboxylic acid] | > 250 |
| CC(CC(=O)N1CCCC2C(C(=O)O)CCCC21)c1c[nH]c2nccc(C3CC3)c12 (stereo not shown) [Compound 205, 1-[3-(4-cyclopropyl-1H-pyrrolo[2,3-b]pyridin-3-yl)butanoyl]decahydroquinoline-5-carboxylic acid] | > 250 |
| Cc1cccc2c1c(C(C)CC(=O)N1CCCC3C(C(=O)O)CCCC31)cn2C (stereo not shown) [Compound 207, 1-[3-(1,4-dimethyl-1H-indol-3-yl)butanoyl]decahydroquinoline-5-carboxylic acid] | > 250 |

Now from value to compound:

| IC50 [nM] | SMILES |
| --- | --- |
| > 250 | CO/N=C1/CCN(C(=O)CCc2c[nH]c3ccccc23)C2CCCCC12 (stereo not shown) [Compound 36] |
| > 250 | CC1CC2CCCCC2N(C(=O)CCc2c[nH]c3ccccc23)C1 (stereo not shown) [Compound 37, 3-(1H-indol-3-yl)-1-(3-methyloctahydroquinolin-1(2H)-yl)propan-1-one] |
| 150 to 200 | CC1CCC2CCCCC2N1C(=O)CCc1c[nH]c2ccccc12 (stereo not shown) [Compound 38, 3-(1H-indol-3-yl)-1-(2-methyloctahydroquinolin-1(2H)-yl)propan-1-one] |
| 100 to 150 | O=C(CCc1c[nH]c2ccccc12)N1CCC2CCCCC21 (stereo not shown) [Compound 41, 3-(1H-indol-3-yl)-1-(octahydro-1H-Indol-1-yl)propan-1-one] |
| < 100 | O=C(CCc1c[nH]c2cccc(F)c12)N1CCCC2CCCCC21 (stereo not shown) [Compound 44, 3-(4-fluoro-1H-indol-3-yl)-1-(octahydroquinolin-1(2H)-yl)propan-1-one] |
| < 100 | Cn1cc(CCC(=O)N2CCCC3CCCCC32)c2c(F)cccc21 (stereo not shown) [Compound 47, 3-(4-fluoro-1-methyl-1H-Indol-3-yl)-1-(octahydroquinolin-1(2H)-yl)propan-1-one] |
| 150 to 200 | Cn1cc(C(C)(C)CC(=O)N2CCCC3(C)CCCCC23)c2ccccc21 (stereo not shown) [Compound 59, 3-methyl-3-(1-methyl-1H-indol-3-yl)-1-(4a-methyloctahydroquinolin-1 (2H)-yl)butan-1-one] |
| < 100 | Cc1cccc2c1c(CCC(=O)N1CCOC3CCCCC31)cn2C (stereo not shown) [Compound 60, 3-(1,4-dimethyl-1H-indol-3-yl)-1-(octahydro-4H-1,4-benzoxazin-4-yl)propan-1-one] |
| 150 to 200 | Cc1cccc2[nH]cc(CCC(=O)N3CCOC4CCCCC43)c12 (stereo not shown) [Compound 64, 3-(4-methyl-1H-indol-3-yl)-1-(octahydro-4H-1,4-benzoxazin-4-yl)propan-1-one] |
| 150 to 200 | Cn1cc(C(C)(C)CC(=O)N2CCOC3CCCCC32)c2ccccc21 (stereo not shown) [Compound 71, 3-methyl-3-(1-methyl-1H-indol-3-yl)-1-(octahydro-4H-1,4-benzoxazin-4-yl)butan-1-one] |
| < 100 | O=C(CCc1c[nH]c2cccc(F)c12)N1CCOC2CCCCC21 (stereo not shown) [Compound 72, 3-(4-fluoro-1H-indol-3-yl)-1-(octahydro-4H-1,4-benzoxazin-4-yl)propan-1-one] |
| < 100 | CC(CC(=O)N1CCCC2C(C(=O)O)CCCC21)c1c[nH]c2cccc(C3CC3)c12 (stereo not shown) [Compound 190, 1-[3-(4-cyclopropyl-1H-Indol-3-yl)butanoyl]decahydroquinoline-5-carboxylic acid] |
| 100 to 150 | CC(CC(=O)N1CCCC2CC(C(=O)O)CCC21)c1c[nH]c2cccc(C3CC3)c12 (stereo not shown) [Compound 191, 1-[3-(4-cyclopropyl-1H-Indol-3-yl)butanoyl]decahydroquinoline-6-carboxylic acid] |
| < 100 | CC(CC(=O)N1CCCC2C(C(=O)O)CCCC21)c1c[nH]c2cccc(-c3cccs3)c12 (stereo not shown) [Compound 192, 1-{3-[4-(thiophen-2-yl)-1H-indol-3-yl]butanoyl}decahydroquinoline-5-carboxylic acid] |
| 100 to 150 | CC(CC(=O)N1CCCC2C(C(=O)O)CCCC21)c1c[nH]c2cccc(Cl)c12 (stereo not shown) [Compound 193, 1-[3-(4-chloro-1H-indol-3-yl)butanoyl]decahydroquinoline-5-carboxylic acid] |
| < 100 | CC(C)Oc1cccc2[nH]cc(C(C)CC(=O)N3CCCC4C(C(=O)O)CCCC43)c12 (stereo not shown) [Compound 201, 1-{3-[4-(propan-2-yloxy)-1H-indol-3-yl]butanoyl}decahydroquinoline-5-carboxylic acid] |
| < 100 | CC(CC(=O)N1CCCC2C(C(=O)O)CCCC21)c1cn(C)c2cccc(C3CC3)c12 (stereo not shown) [Compound 204, 1-[3-(4-cyclopropyl-1-methyl-1H-indol-3-yl)butanoyl]decahydroquinoline-5-carboxylic acid] |
| < 100 | O=C(O)C1CCCC2C1CCCN2C(=O)CC(c1cccs1)c1c[nH]c2cccc(Cl)c12 (stereo not shown) [Compound 206, 1-[3-(4-chloro-1H-indol-3-yl)-3-(thiophen-2-yl)propanoyl]decahydroquinoline-5-carboxylic acid] |

Reference: patent US9453014B2, “Cyclic amide derivatives as inhibitors of 11-β-hydroxysteroid dehydrogenase and uses thereof” (CONNEXIOS LIFE SCIENCES PVT. LTD., priority 2011, dated 2016)
